pKi: −log10 of the molar value.

Chain of GSK-3β (AA 1-420) (P49841 whole entry, species assumed, the tested form may be a part): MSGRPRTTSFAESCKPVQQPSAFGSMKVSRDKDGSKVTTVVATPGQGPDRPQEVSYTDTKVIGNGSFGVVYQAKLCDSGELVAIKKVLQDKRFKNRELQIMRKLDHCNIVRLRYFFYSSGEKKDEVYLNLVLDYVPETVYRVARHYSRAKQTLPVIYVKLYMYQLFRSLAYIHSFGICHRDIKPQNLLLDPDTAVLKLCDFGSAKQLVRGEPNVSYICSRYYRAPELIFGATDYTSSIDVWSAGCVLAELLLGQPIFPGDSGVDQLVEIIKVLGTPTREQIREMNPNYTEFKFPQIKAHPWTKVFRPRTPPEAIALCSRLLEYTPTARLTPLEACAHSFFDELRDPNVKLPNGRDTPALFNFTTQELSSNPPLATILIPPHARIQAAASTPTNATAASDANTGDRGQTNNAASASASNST

The test deals with GSK-3β (AA 1-420) (Homo sapiens, UniProt P49841). The test can be described thus: Inhibition of GSK-3, standard coupled enzyme system. The test is classed as biochemical. The following applies: 20 μM ATP, 300 μM peptide, 20 nM GSK-3β, 30° C. Here is the method:
Compounds were screened for their ability to inhibit GSK-3β (AA 1-420) activity using a standard coupled enzyme system (Fox et al. Protein Sci. 7, p. 2249 (1998)). Reactions were carried out in a solution containing 100 mM HEPES (pH 7.5), 10 mM MgCl2, 25 mM NaCl, 300 μM NADH, 1 mM DTT and 1.5% DMSO. Final substrate concentrations in the assay were 20 μM ATP (Sigma Chemicals, St Louis, Mo.) and 300 μM peptide (American Peptide, Sunnyvale, Calif.). Reactions were carried out at 30° C. and 20 nM GSK-3β. Final concentrations of the components of the coupled enzyme system were 2.5 mM phosphoenolpyruvate, 300 μM NADH, 30 μg/ml pyruvate kinase and 10 μg/ml lactate dehydrogenase.
An assay stock buffer solution was prepared containing all of the reagents listed above with the exception of ATP and the test compound of interest. The assay stock buffer solution (175 μl) was incubated in a 96 well plate with 5 μl of the test compound of interest at final concentrations spanning 0.002 μM to 30 μM at 30° C. for 10 min. Typically, a 12 point titration was conducted by preparing serial dilutions (from 10 mM compound stocks) with DMSO of the test compounds in daughter plates. The reaction was initiated by the addition of 20 μl of ATP (final concentration 20 μM). Rates of reaction were obtained using a Molecular Devices Spectramax plate reader (Sunnyvale, Calif.) over 10 min at 30° C. The Ki values were determined from the rate data as a function of inhibitor concentration.
By pKi is commonly meant the Ki on a negative log10 scale, so that one unit is a factor of ten. In the case of `Nc1n[nH]c2cc(=O)n(-c3cccc([N+](=O)[O-])c3)nc12` [Compound I-7], the pKi was more than 5.40.

Turning to `Nc1n[nH]c2cc(=O)n(-c3cccc(S(N)(=O)=O)c3)nc12` [Compound I-9], the pKi is more than 5.40.

`COc1cccc(-n2nc3c(N)n[nH]c3cc2=O)c1` [Compound I-1] had a pKi of more than 5.40.

The molecule `Nc1n[nH]c2cc(=O)n(-c3ccccc3)nc12` [Compound I-2] gave a pKi of more than 5.40.

With `Nc1n[nH]c2cc(=O)n(-c3ccc(Oc4ccccc4)cc3)nc12` [Compound I-4], the pKi is more than 5.40.

As to `Nc1n[nH]c2cc(=O)n(-c3cccc(Cl)c3)nc12` [Compound I-8], the negative-log Ki (pKi) is more than 5.40.

On to `COc1cc2ncnc(Nc3n[nH]c4cc(=O)n(-c5cccc(C(F)(F)F)c5)nc34)c2cc1OC` [Compound I-6], for which the pKi was more than 5.40.

`Cc1ccc(-n2nc3c(N)n[nH]c3cc2=O)cc1` [Compound I-5] had a pKi of more than 5.40.
